From PubChem BioAssay AID1963962 (Molecular Pharmacology Branch, DTP, NCI, 2024)

System: 967376-340-R-J2-PDC multicell spheroid viability
Test: Anticancer human tumor 967376-340-R-J2-PDC patient-derived colon adenocarcinoma cell line growth inhibition [PI3K]
Conditions: for IC50: curve of first compound; for viability, T/C: stronger effect = lower value; active = viability on the fitted dose curve at most 10% of control; inactive = the rest
How it was run: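 Viability of mixed-cell spheroids was determined after exposure to pairwise combinations, one partner being inavolisib, alpelisib, duvelisib or copanlisib. Highest tested concentration matched clinical Cmax where known and 10 microM where not, descending in half-log steps.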

[1] = second compound 0.0316 µM, first compound 0.0316 µM
[2] = second compound 0.0316 µM, first compound 0.1 µM
[3] = second compound 0.1 µM, first compound 0.0316 µM
[4] = second compound 0.1 µM, first compound 0.1 µM
[5] = second compound 0.316 µM, first compound 0.0316 µM
[6] = second compound 0.316 µM, first compound 0.1 µM
[7] = second compound 1 µM, first compound 0.0316 µM
[8] = second compound 1 µM, first compound 0.1 µM
[9] = second compound 3.16 µM, first compound 0.0316 µM
[10] = second compound 3.16 µM, first compound 0.1 µM
[11] = second compound 10 µM, first compound 0.0316 µM
[12] = second compound 10 µM, first compound 0.1 µM
[13] = second compound 0.0316 µM, first compound 0.316 µM
[14] = second compound 0.0316 µM, first compound 1 µM
[15] = second compound 0.0316 µM, first compound 3.16 µM
[16] = second compound 0.0316 µM, first compound 10 µM
[17] = second compound 0.1 µM, first compound 0.316 µM
[18] = second compound 0.1 µM, first compound 1 µM
[19] = second compound 0.1 µM, first compound 3.16 µM
[20] = second compound 0.1 µM, first compound 10 µM
[21] = second compound 0.316 µM, first compound 0.316 µM
[22] = second compound 0.316 µM, first compound 1 µM
[23] = second compound 0.316 µM, first compound 3.16 µM
[24] = second compound 0.316 µM, first compound 10 µM
[25] = second compound 1 µM, first compound 0.316 µM
[26] = second compound 1 µM, first compound 1 µM
[27] = second compound 1 µM, first compound 3.16 µM
[28] = second compound 1 µM, first compound 10 µM
[29] = second compound 3.16 µM, first compound 0.316 µM
[30] = second compound 3.16 µM, first compound 1 µM
[31] = second compound 3.16 µM, first compound 3.16 µM
[32] = second compound 3.16 µM, first compound 10 µM
[33] = second compound 10 µM, first compound 0.316 µM
[34] = second compound 10 µM, first compound 1 µM
[35] = second compound 10 µM, first compound 3.16 µM
[36] = second compound 10 µM, first compound 10 µM
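Note: spheroids exposed to agents for 7 days before read-out.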
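Throughout, for viability, T/C: luminescence used as surrogate of cell viability.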

CC(=O)c1c(C)c2cnc(Nc3ccc(N4CCNCC4)cn3)nc2n(C2CCCC2)c1=O + CC(Nc1ncnc2nc[nH]c12)c1cc2cccc(Cl)c2c(=O)n1-c1ccccc1
> 0.1 µM: IC50 (second compound 0.0316 µM) | IC50 (second compound 0.1 µM) | IC50 (second compound 0.316 µM) | IC50 (second compound 1 µM) | IC50 (second compound 3.16 µM) | IC50 (second compound 10 µM)
inactive: viability, T/C (second compound 0.0316 µM, first compound 0.000316 µM) 81.1% | viability, T/C (second compound 0.0316 µM, first compound 0.001 µM) 101% | viability, T/C (second compound 0.0316 µM, first compound 0.00316 µM) 92.2% | viability, T/C (second compound 0.0316 µM, first compound 0.01 µM) 92.7% | viability, T/C [1] 79.9% | viability, T/C [2] 82.6% | viability, T/C (second compound 0.1 µM, first compound 0.000316 µM) 114% | viability, T/C (second compound 0.1 µM, first compound 0.001 µM) 89.4% | viability, T/C (second compound 0.1 µM, first compound 0.00316 µM) 101% | viability, T/C (second compound 0.1 µM, first compound 0.01 µM) 89.4% | viability, T/C [3] 84.4% | viability, T/C [4] 83.8% | viability, T/C (second compound 0.316 µM, first compound 0.000316 µM) 101% | viability, T/C (second compound 0.316 µM, first compound 0.001 µM) 96% | viability, T/C (second compound 0.316 µM, first compound 0.00316 µM) 113% | viability, T/C (second compound 0.316 µM, first compound 0.01 µM) 97% | viability, T/C [5] 79.3% | viability, T/C [6] 78.6% | viability, T/C (second compound 1 µM, first compound 0.000316 µM) 90% | viability, T/C (second compound 1 µM, first compound 0.001 µM) 103% | viability, T/C (second compound 1 µM, first compound 0.00316 µM) 91% | viability, T/C (second compound 1 µM, first compound 0.01 µM) 80.3% | viability, T/C [7] 98.6% | viability, T/C [8] 88.2% | viability, T/C (second compound 3.16 µM, first compound 0.000316 µM) 89.6% | viability, T/C (second compound 3.16 µM, first compound 0.001 µM) 109% | viability, T/C (second compound 3.16 µM, first compound 0.00316 µM) 95.1% | viability, T/C (second compound 3.16 µM, first compound 0.01 µM) 90.3% | viability, T/C [9] 84.1% | viability, T/C [10] 63.9% | viability, T/C (second compound 10 µM, first compound 0.000316 µM) 83.5% | viability, T/C (second compound 10 µM, first compound 0.001 µM) 89.5% | viability, T/C (second compound 10 µM, first compound 0.00316 µM) 81.3% | viability, T/C (second compound 10 µM, first compound 0.01 µM) 88% | viability, T/C [11] 87.5% | viability, T/C [12] 86.9%

CCCS(=O)(=O)Nc1ccc(F)c(C(=O)c2c[nH]c3ncc(-c4ccc(Cl)cc4)cc23)c1F + CC(Nc1ncnc2nc[nH]c12)c1cc2cccc(Cl)c2c(=O)n1-c1ccccc1
> 10 µM: IC50 (second compound 0.0316 µM) | IC50 (second compound 0.1 µM) | IC50 (second compound 0.316 µM) | IC50 (second compound 1 µM) | IC50 (second compound 3.16 µM) | IC50 (second compound 10 µM)
inactive: viability, T/C [1] 122% | viability, T/C [2] 125% | viability, T/C [13] 109% | viability, T/C [14] 113% | viability, T/C [15] 103% | viability, T/C [16] 58.9% | viability, T/C [3] 97.2% | viability, T/C [4] 106% | viability, T/C [17] 99.1% | viability, T/C [18] 90.5% | viability, T/C [19] 92% | viability, T/C [20] 52.7% | viability, T/C [5] 103% | viability, T/C [6] 89.1% | viability, T/C [21] 96.6% | viability, T/C [22] 96.3% | viability, T/C [23] 109% | viability, T/C [24] 60.4% | viability, T/C [7] 98.2% | viability, T/C [8] 95.4% | viability, T/C [25] 105% | viability, T/C [26] 92.7% | viability, T/C [27] 110% | viability, T/C [28] 58.4% | viability, T/C [9] 119% | viability, T/C [10] 79.9% | viability, T/C [29] 92.2% | viability, T/C [30] 111% | viability, T/C [31] 100% | viability, T/C [32] 74.9% | viability, T/C [11] 84.2% | viability, T/C [12] 87.1% | viability, T/C [33] 80% | viability, T/C [34] 88.7% | viability, T/C [35] 98.7% | viability, T/C [36] 61.1%

CNC(=O)c1ccc(N2C(=S)N(c3ccc(C#N)c(C(F)(F)F)c3)C(=O)C2(C)C)cc1F + CC(Nc1ncnc2nc[nH]c12)c1cc2cccc(Cl)c2c(=O)n1-c1ccccc1
> 10 µM: IC50 (second compound 0.0316 µM) | IC50 (second compound 0.1 µM) | IC50 (second compound 0.316 µM) | IC50 (second compound 1 µM) | IC50 (second compound 3.16 µM) | IC50 (second compound 10 µM)
inactive: viability, T/C [1] 140% | viability, T/C [2] 88.7% | viability, T/C [13] 92% | viability, T/C [14] 101% | viability, T/C [15] 134% | viability, T/C [16] 88.3% | viability, T/C [3] 109% | viability, T/C [4] 109% | viability, T/C [17] 94.2% | viability, T/C [18] 104% | viability, T/C [19] 99.3% | viability, T/C [20] 73.1% | viability, T/C [5] 89.6% | viability, T/C [6] 104% | viability, T/C [21] 82.2% | viability, T/C [22] 92% | viability, T/C [23] 106% | viability, T/C [24] 105% | viability, T/C [7] 81.4% | viability, T/C [8] 80.3% | viability, T/C [25] 72.3% | viability, T/C [26] 86.1% | viability, T/C [27] 113% | viability, T/C [28] 88.5% | viability, T/C [9] 78.5% | viability, T/C [10] 89% | viability, T/C [29] 82% | viability, T/C [30] 80.1% | viability, T/C [31] 102% | viability, T/C [32] 87.5% | viability, T/C [11] 63.9% | viability, T/C [12] 83.7% | viability, T/C [33] 70% | viability, T/C [34] 70.6% | viability, T/C [35] 92.3% | viability, T/C [36] 77.4%
